Assay results: US5990078A, “Means of increasing estrogen receptor levels in neural tissue” (The Trustees of Columbia University in the City of New York, priority 1996, dated 1999)
“Also recorded” adds a separate entry of the source.

Key:
PC12-E2 cells = assay: Morphological study of neurite growth in PC12-E2 cells; format: cell-based
Description: (§1) It has been previously reported that wild-type, differentiated PC12 pheochromocytoma cells express very low levels of estrogen receptors. Here it is reported that a PC12 cell variant, PC12-E2 (Wu, Bradshaw, J. Cell Physiol. 164:1995), is estrogen responsive and expresses high estrogen receptor level (≈50% of the levels observed in estrogen receptor over-expressing MCF-7 cells). Moreover, although tyrosine phosphorylation of the estrogen receptor appeared to be expressed constitutively, these cells responded to added estrogen. PC12-E2 responsiveness to estrogen was determined morphologically and by measuring estradiol-induced ERK activation. […] Preliminary co-precipitation experiments show an association between src and estrogen receptor, src with MEK (MAP Kinase/ERK-activating Kinase), and MEK with B-raf, MEK, which phosphorylates the ERKs on tyrosine residues, is known to exist as a complex consisting of at least hsp90 and B-raf.

ERKs 1 and 2 [1] = assay: ERK activation in PC12-E2 cells; format: cell-based
Description: as §1

p75^NGFR mRNA [2] = assay: Northern blot analysis of p75NGFR mRNA in PC12 cells; format: cell-based, rat; conditions: NGF-treated PC12 cells
Procedure: PC12 cells were cultured on collagen-coated coverslips or tissue culture dishes in phenol red-free RPMI 1640 (Gibco BRL) nutrient medium supplemented with 10% (heat-inactivated) gelded (steroid-deficient) horse serum (JRH Biological), according to a modification of standard procedures. In these experiments, fetal calf serum, which contains physiologic levels of estrogen, (32 pg/ml) was not used.
Total RNA, prepared by a modification of the Chomczynski and Sacchi method, was size-fractionated (10-20 μg/lane) on a 1.2% agarose-18% formaldehyde gel and capillary-transferred to nylon membrane (Hybond-N; Amersham). Filters were prehybridized (4-18 h) and hybridized (36-40 h) at 42° C. in 50% Formamide, 3× SSC, 0.1M Tris, 5× Denhardt's and 10% Dextran Sulfate. Probes were labeled with [α-^32 P]-dCTP by the random priming procedure (Random Priming kit, Boehringer Mannheim). trkA mRNA was identified by hybridization with pDM97, a 450 bp trkA-specific probe corresponding to the extracellular and transmembrane domains of the trkA gene [67; gift of L. F. Parada, NCI-FCRDC]. p75^NGFR was probed by hybridization with p5b, a 2 Kb probe corresponding to the extracellular domain of the p75^NGFR gene. Blots were washed first in 0.2×SSC and 0.5% SDS briefly at room temperature and then for 2 h at 60° C., with frequent changes of wash buffer. Filters were then exposed to film (Kodak X-Omat) between intensifying screens and stored at -70° C. for 1-4 days before developing.
Using a standard densitometry package (Jandel Scientific), optical density measurements were obtained from X-ray film. trkA and p75^NGFR transcript densities were normalized to an internal control to account for variation in the amount of RNA loaded.
Total RNA was analyzed by Northern blot analyses, using ^32 P-labeled cDNA probes for trkA and p75^NGFR.

trkA mRNA = conditions: adult female rat DRG neurons in vivo [90]; listed as estrogen; cited from earlier work
ERKs = assay: In-gel kinase assay of ERKs with MBP as substrate, cortical explants; format: cell-based
Procedure: (§2) Estrogen and the neurotrophins have important roles in the developing and adult central nervous system (CNS). […] The hypothesis that estrogen/neurotrophin receptor co-expression leads to reciprocal regulation at the level of signal transduction, through cross-coupling of converging estrogen and neurotrophin signaling pathways whose end-points in the nucleus may be the very same genes was tested. Postnatal day 2 cerebral cortex was maintained as organotypic explants in roller tube culture for 7 days.

trk receptors = assay: Tyrosine phosphorylation of the trk receptors, cortical explants; format: cell-based
Procedure: as §2

PC12 cells = assay: Morphology / neurite differentiation of PC12 cells; format: cell-based, rat; conditions: estrogen exposure
p75^NGFR mRNA [3] = conditions: adult female rat DRG neurons in vivo [90]; cited from earlier work
ERK = ERK stimulation in wild-type, differentiated PC12 cells; format: cell-based
ERKs 1 and 2 [4] = assay: Tyrosine phosphorylation of ERKs 1 and 2 in cerebral cortical explants; format: cell-based; conditions: P2 cortical explants
Procedure: as §2

estrogen receptor mRNA [5] = assay: Isotopic in situ hybridization of estrogen receptor mRNA in cortical explant cultures; format: cell-based, rat; conditions: cortical explants, hrNGF 100 ng/mL
Description: (§3) Time-pregnant rats (Sprague-Dawley) were obtained from Zivic (Miller, Pa.). Organotypic explant cultures were obtained from postnatal day (P) 2 rat brains (P1=day of birth) of both sexes. Brains were slice coronally into 360-μm thick sections using a brain slicer (Toran-Allerand, 1990). A total of four coronal sections from the periseptal region were isolated and dissected into four pairs of hemicoronal cortical [cingulate and neocortex, FIG. 6(a)] and basal forebrain [septum, nuclei of the diagonal band of Broca and ventral pallidum, FIG. 6(b)] sections. […]
Estrogen receptor mRNA was detected in cerebral cortical cultures in using […] oligonucleotide probes complementary to a sequence within rat estrogen receptor mRNA coding for hormone binding domain (Miranda et al., 1993b, 1994; Miranda and Toran-Allerand, 1992; Toran-Allerand et al., 1992b). […] Isotopically (^35 S)-labeled hybrids were detected in whole explant cultures by desiccating the cultures and apposing them to autoradiographic film (Kodak X-omat). The intensity of mRNA expression was quantified as the density of film exposure over the explant divided by the density over background using a standard morphometrics package (Jandel Scientific).

estrogen receptor mRNA [6] = assay: Semiquantitative RT-PCR of estrogen receptor mRNA in cortical and basal forebrain explant cultures; format: cell-based, rat; conditions: cortical and basal forebrain explants, hrNGF 100 ng/mL
Description: Time-pregnant rats (Sprague-Dawley) were obtained from Zivic (Miller, Pa.). Organotypic explant cultures were obtained from postnatal day (P) 2 rat brains (P1=day of birth) of both sexes. Brains were slice coronally into 360-μm thick sections using a brain slicer (Toran-Allerand, 1990). A total of four coronal sections from the periseptal region were isolated and dissected into four pairs of hemicoronal cortical [cingulate and neocortex, FIG. 6(a)] and basal forebrain [septum, nuclei of the diagonal band of Broca and ventral pallidum, FIG. 6(b)] sections. Hemicoronal explants were maintained in roller tube assemblies (Caeser et al., 1989; Gahwiler et al., 1991), on collagen coated coverslips for 8 days in vitro, in serum supplemented (25% gelded horse serum, JRH), steroid deficient and phenol red free medium containing 50% basal medium (Eagle's), 25% Hank's balanced salt solution (HBSS), and 0.65% glucose. […] Cultures were fed 3 times a week.
Estrogen receptor mRNA expression was assessed by semiquantitative RT-CPR, using RNA isolated from pooled cortical (two explants pooled/sample) and basal forebrain (four explants pooled/sample) cultures. PCR primers (gift of B. Schachter, Mount Sinai Hospital) were designed to amplify a 300 base pair (bp) sequence from the region coding for the ligand binding domain (Sohrabji et al., 1994b). […]

estrogen receptor = biological target: T1, estrogen receptor (Rattus norvegicus, UniProt P06211); assay: Modified nuclear binding assay, basal forebrain explant cultures; format: cell-based; design: endogenous in cells; conditions: P2 rat basal forebrain explants, 8 days in vitro, hrNGF 100 ng/mL
T1 sequence (P06211 1-600): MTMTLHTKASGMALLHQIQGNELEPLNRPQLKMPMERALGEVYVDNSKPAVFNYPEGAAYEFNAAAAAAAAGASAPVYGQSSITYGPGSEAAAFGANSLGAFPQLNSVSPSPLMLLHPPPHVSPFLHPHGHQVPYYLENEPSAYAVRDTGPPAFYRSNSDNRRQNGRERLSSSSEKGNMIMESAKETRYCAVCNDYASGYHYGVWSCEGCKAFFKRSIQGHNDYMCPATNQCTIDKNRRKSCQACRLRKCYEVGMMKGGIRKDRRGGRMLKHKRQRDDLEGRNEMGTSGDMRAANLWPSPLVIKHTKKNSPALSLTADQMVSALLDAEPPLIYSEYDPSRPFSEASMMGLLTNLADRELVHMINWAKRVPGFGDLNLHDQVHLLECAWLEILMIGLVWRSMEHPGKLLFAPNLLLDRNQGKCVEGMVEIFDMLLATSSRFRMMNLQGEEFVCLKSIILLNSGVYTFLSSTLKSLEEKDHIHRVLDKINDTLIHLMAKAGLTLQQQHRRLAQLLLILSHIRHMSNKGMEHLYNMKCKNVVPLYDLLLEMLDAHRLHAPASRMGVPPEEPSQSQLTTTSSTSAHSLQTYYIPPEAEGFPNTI
Description: as §3
Nuclear receptor binding sites were identified using previously published protocols (Sohrabji et al., 1994a,b) and were standardized for this experiment using both MCF-7 cells and hypothalamic tissue. […] Radioactivity was eluted from nuclear pellets with 95% ethanol (moxestrol is completely soluble in >50% ethanol) and the radioactivity counted in a liquid scintillation counter. […] Specific binding was determined as the difference between total binding and non-specific binding (in the presence of an unlabeled competing ligand) and the data expressed as femtomoles of specifically bound [^3 H] -moxestrol/mg DNA. […]

C[C@]12CC[C@@H]3c4ccc(O)cc4CC[C@H]3[C@@H]1CC[C@@H]2O [estradiol, 17-β estradiol]
Neurite outgrowth (PC12-E2 cells): little effect
Time to tyrosine phosphorylation of ERKs 1 and 2 (ERKs 1 and 2 [1]): ≤ 15 min
p75NGFR mRNA level (p75^NGFR mRNA [2]; 1 day after estrogen treatment): below basal levels
p75NGFR mRNA level (p75^NGFR mRNA [2]; 3 days of estrogen exposure): decreased by half
p75NGFR mRNA level (p75^NGFR mRNA [2]; 3 days of estrogen exposure, 4320 min): approximately 50 % of baseline
p75NGFR mRNA level (p75^NGFR mRNA [2]; 7 days of estrogen treatment): indistinguishable from basal levels; also recorded: no different from basal levels
Increase in trkA mRNA (trkA mRNA): two to three-fold
Activity of phosphorylated ERKs in phosphorylating MBP vs untreated controls (ERKs): much more active
Tyrosine phosphorylation of the trk receptors (trk receptors): induced tyrosine phosphorylation
Effect on morphology / neurite differentiation (PC12 cells): no readily visible effects; also recorded: did not appear to influence visibly
p75NGFR mRNA (p75^NGFR mRNA [3]): transient decrease
Estradiol-induced ERK stimulation (ERK): no estradiol-induced ERK stimulation was observed
Persistence of tyrosine phosphorylation of the ERKs (ERKs 1 and 2 [4]): at least 4 hrs.
Time of maximal tyrosine phosphorylation of the ERKs (ERKs 1 and 2 [4]): 30 min
Onset of tyrosine phosphorylation of the ERKs (ERKs 1 and 2 [4]; 24 hrs estrogen and neurotrophin deprivation): ≤ 5 min

hrNGF: human recombinant NGF (gift of Louis Burton, Genetech)
Estrogen receptor mRNA, density of hybridization signal (estrogen receptor mRNA [5]): No alterations; also recorded: did not lead to an alteration
Estrogen receptor mRNA (normalized to cyclophilin mRNA) vs control (estrogen receptor mRNA [6]): no different; also recorded: did not lead to an alteration
Density of estrogen binding sites (estrogen receptor): did not significantly alter and not
